Molecules are shown by their SMILES.

The source of these data is BindingDB's records for doi:10.1038/sj.bjp.0702293 (Monash University, 1999).

Experiment [1] deals with 5-hydroxytryptamine receptor 7 (Rattus norvegicus, UniProt P32305).
Experiment [2] concerns the target 5-hydroxytryptamine receptor 7 (Cavia porcellus, UniProt P50407).

5-hydroxytryptamine receptor 7 (Rattus norvegicus, UniProt P32305), sequence (P32305 whole entry): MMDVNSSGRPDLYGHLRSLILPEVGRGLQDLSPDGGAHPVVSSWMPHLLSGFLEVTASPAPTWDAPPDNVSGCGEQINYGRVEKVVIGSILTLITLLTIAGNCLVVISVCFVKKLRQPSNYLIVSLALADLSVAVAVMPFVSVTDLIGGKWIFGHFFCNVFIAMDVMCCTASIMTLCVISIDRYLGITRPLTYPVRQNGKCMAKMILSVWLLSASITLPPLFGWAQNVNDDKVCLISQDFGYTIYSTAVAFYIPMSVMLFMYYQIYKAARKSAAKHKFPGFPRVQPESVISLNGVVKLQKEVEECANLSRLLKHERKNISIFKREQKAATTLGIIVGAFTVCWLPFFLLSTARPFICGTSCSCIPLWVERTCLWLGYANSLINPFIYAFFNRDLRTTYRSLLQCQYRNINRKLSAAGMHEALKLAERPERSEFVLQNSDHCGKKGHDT
5-hydroxytryptamine receptor 7 (Cavia porcellus, UniProt P50407), sequence (P50407 whole entry): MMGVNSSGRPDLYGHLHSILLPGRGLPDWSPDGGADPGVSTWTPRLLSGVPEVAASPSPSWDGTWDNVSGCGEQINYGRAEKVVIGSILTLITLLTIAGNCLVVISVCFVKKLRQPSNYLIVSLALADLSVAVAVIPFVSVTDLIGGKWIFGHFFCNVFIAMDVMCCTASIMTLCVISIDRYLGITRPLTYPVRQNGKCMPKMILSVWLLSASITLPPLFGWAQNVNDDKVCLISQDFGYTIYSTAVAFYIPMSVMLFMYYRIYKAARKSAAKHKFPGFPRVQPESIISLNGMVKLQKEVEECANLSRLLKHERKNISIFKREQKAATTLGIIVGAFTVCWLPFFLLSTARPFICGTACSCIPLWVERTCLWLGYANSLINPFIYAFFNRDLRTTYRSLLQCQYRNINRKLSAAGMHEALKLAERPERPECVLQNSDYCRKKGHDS

`Cc1nc2sccn2c(=O)c1CCN1CCC(=C(c2ccc(F)cc2)c2ccc(F)cc2)CC1`: the Ki in experiment [1] worked out at 25.1 nM; in experiment [2], 5.01 nM.
`Cc1nc2n(c(=O)c1CCN1CCC(c3noc4cc(F)ccc34)CC1)CCCC2` [3-{2-[4-(6-Fluoro-benzo[d]isoxazol-3-yl)-piperidin-1-yl]-ethyl}-2-methyl-6,7,8,9-tetrahydro-pyrido[1,2-a]pyrimidin-4-one(risperidone)] displayed a Ki in experiment [2] of 0.4 nM.
Same read-out and setting: to `CCN(CC)C(=O)[C@@H]1C=C2c3cccc4[nH]cc(c34)C[C@H]2N(C)C1` [(4R,7R)-N,N-diethyl-6-methyl-6,11-diazatetracyclo[7.6.1.0^{2,7}.0^{12,16}]hexadeca-1(16),2,9,12,14-pentaene-4-carboxamide] belongs 0.4 nM.
With `CC(C)NCC(O)COc1cccc2[nH]ccc12` (centres undefined) [LB-46], the Ki was more than 10000 nM in experiment [1] and 501 nM in experiment [2].
The like results for `CN1C[C@@H](NS(=O)(=O)N(C)C)C[C@@H]2c3cccc4c3c(cn4C)C[C@H]21` [MESULERGINE] were, in that order, 10 nM and 12.6 nM.
Consider `CN1C[C@H](CNC(=O)OCc2ccccc2)C[C@@H]2c3cccc4c3c(cn4C)C[C@H]21` [METERGOLINE], for which the Ki worked out at 10 nM in experiment [1] and 1.58 nM in experiment [2].
As to `CNS(=O)(=O)Cc1ccc2[nH]cc(CCN(C)C)c2c1` [Sumax], the results for the Ki in experiment [1] and in experiment [2] were 25.1 nM and 100 nM, respectively.
On to `NCCc1c[nH]c2ccc(O)cc12` [[3H]-5-HT], for which, in experiment [2], the affinity, expressed as Ki, was 0.1 nM.
`COc1ccc2[nH]cc(CCN)c2c1` [tryptamine, 5-Methoxy]: the Ki in experiment [2] amounted to 0.25 nM.

Broadly, the Ki is a measure of affinity in units of concentration, obtained from inhibition or displacement.
